For series [1], the target named is Monoacylglycerol acyltransferase 1 (MGAT1) (Homo sapiens, UniProt Q96PD6). As to the kind of experiment: Selectivity data (Table S1). The class given is biochemical.
The target in series [2] is Diacylglycerol acyltransferase 1 (DGAT1) (Homo sapiens, UniProt O75907). As to the kind of experiment: Selectivity data (Table S1). The class given is biochemical.
Series [3] deals with Monoacylglycerol acyltransferase 3 (MGAT3) (Homo sapiens, UniProt Q86VF5). As to the kind of experiment: Selectivity data (Table S1). The series is classed as biochemical.
Series [4] in a line: Intra-/extracellular unbound concentration ratio (Kpuu) in HEKNaCT cells. The series is classed as in vitro ADME. The settings on record: human, ratio of free intracellular and media concentration after 1 h incubation at 1 μM, geometric mean of 3 replicates ± SD. The method, then: kpuu values were determined by measuring total cell and media concentrations corrected for their respective fraction unbound. Detailed methods to determine intra- and extracellular concentrations of compound in the HEKNaCT cells and human hepatocytes will be the subject of a separate manuscript that is under preparation. […]
Intra- and extracellular concentrations of compound in cellular assays. kpuu values were determined by measuring total cell and media concentrations corrected for their respective […]
fraction unbound. […]
The solution was heated to reflux until the total volume was reduced to ~25 mL.
Hexane (25 mL) was added and the mixture was brought back to reflux than allowed to slowly cool to room temperature. After standing at room temperature for 16 h, the resulting suspension was filtered and dried under high vacuum to yield (S)-2-(4-(tert-butyl)phenethyl)-2-hydroxysuccinic acid (3) as a white solid. The filtrate was allowed to stand at room temperature for 4 days. The solvent evaporated to ~15 mL and large, colorless crystals formed.
X-ray analysis. Data collection was performed on a Bruker APEX diffractometer at room temperature. Data collection consisted of 3 omega scans and low angle and three at high angle; each with 0.5 step. In addition, 2 phi scans were collected to improve the quality of the […]

In series [5] the target is Lymphocyte-specific protein tyrosine kinase (LCK) (Homo sapiens, UniProt P06239). The experiment in a line: Selectivity data (Table S1). The series is classed as biochemical.
For series [6], the target named is Monoacylglycerol acyltransferase 2 (MGAT2) (Homo sapiens, UniProt Q3SYC2). The experiment in a line: Selectivity data (Table S1). The series is classed as biochemical.
In series [7] the target is Dopamine transporter, sodium-dependent (DAT) (Homo sapiens, UniProt Q01959). The experiment in a line: Selectivity data (Table S1).
Series [8] has as its target Gamma-aminobutyric acid receptor A, alpha 1 (GABRA1) (Homo sapiens, UniProt P14867+P47870). As to the kind of experiment: Selectivity data (Table S1). The class given is binding.
Series [9] addresses Neurokinin receptor 1 (NK1) (Homo sapiens, UniProt P25103). The experiment in a line: Selectivity data (Table S1). The class given is binding.
A further series deals with HepG2 cells. As to the kind of experiment: Cellular toxicity in HepG2 cells. The settings on record: concentrations up to 300 μM and 72 hours incubation. The series is classed as cell-based.
For a further series, the system named is HEK-293 parental cells. The experiment in a line: Intracellular concentration of compound in HEK-293 parental cells. The series is classed as in vitro ADME, human. The settings on record: 1 hour incubation; data not shown.
Series [10] addresses Angiotensin II receptor type 1 (AGTR1) (Homo sapiens, UniProt P30556). The experiment in a line: Selectivity data (Table S1). The series is classed as binding.
Series [11] has as its target Human ether-a-go-go (hERG) (Homo sapiens, UniProt Q12809). The experiment in a line: Selectivity data (Table S1).
Series [12] concerns the target Peroxisome proliferator activated receptor gamma (PPAR-gamma) (Homo sapiens, UniProt P37231). As to the kind of experiment: Selectivity data (Table S1). The series is classed as binding.
A further series deals with Androgen receptor (Homo sapiens, UniProt P10275). As to the kind of experiment: Selectivity data (Table S1). The class given is binding.
Series [13] concerns the target Histamine receptor 2 (H2) (Homo sapiens, UniProt P25021). As to the kind of experiment: Selectivity data (Table S1). The series is classed as binding.
The target of series [14] is Phosphodiesterase 4D3 (PDE4D3) (Homo sapiens, UniProt Q08499). As to the kind of experiment: Selectivity data (Table S1). The series is classed as biochemical.
A short description of another series: pKa. The class given is physicochemical.
Series [15] deals with Phosphodiesterase 3B (PDE3B) (Homo sapiens, UniProt Q13370). The experiment in a line: Selectivity data (Table S1). The series is classed as biochemical.

SMILES strings stand for the structures.

Human ether-a-go-go (hERG), sequence (Q12809 whole entry): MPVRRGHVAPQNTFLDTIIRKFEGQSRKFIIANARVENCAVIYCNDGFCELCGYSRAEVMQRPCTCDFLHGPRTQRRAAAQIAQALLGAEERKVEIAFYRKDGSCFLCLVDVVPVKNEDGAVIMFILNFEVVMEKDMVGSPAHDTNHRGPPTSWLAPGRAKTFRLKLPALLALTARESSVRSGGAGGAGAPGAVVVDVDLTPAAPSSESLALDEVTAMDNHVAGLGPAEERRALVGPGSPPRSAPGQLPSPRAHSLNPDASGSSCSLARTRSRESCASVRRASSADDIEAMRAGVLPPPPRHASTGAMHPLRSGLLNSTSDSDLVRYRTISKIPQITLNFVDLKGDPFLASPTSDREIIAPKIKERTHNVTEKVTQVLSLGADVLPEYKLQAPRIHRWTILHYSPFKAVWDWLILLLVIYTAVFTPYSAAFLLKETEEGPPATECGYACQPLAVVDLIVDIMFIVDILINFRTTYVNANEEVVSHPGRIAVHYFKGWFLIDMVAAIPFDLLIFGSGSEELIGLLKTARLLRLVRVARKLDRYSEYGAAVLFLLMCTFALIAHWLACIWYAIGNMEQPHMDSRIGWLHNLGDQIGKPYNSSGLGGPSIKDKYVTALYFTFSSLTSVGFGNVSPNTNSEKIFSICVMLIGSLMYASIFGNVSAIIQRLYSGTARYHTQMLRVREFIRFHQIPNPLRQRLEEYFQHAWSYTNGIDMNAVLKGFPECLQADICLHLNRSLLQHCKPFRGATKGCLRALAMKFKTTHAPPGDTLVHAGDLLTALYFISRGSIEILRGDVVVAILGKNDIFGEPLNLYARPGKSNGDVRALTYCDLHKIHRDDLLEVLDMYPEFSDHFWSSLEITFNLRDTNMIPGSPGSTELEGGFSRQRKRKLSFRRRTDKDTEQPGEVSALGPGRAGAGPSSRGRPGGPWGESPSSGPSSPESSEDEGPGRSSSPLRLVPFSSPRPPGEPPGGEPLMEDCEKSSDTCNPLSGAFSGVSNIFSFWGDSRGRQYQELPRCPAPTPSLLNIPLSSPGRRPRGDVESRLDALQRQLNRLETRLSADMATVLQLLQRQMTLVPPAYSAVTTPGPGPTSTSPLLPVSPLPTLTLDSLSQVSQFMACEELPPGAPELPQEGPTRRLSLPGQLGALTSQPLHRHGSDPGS
Lymphocyte-specific protein tyrosine kinase (LCK), sequence (P06239 whole entry): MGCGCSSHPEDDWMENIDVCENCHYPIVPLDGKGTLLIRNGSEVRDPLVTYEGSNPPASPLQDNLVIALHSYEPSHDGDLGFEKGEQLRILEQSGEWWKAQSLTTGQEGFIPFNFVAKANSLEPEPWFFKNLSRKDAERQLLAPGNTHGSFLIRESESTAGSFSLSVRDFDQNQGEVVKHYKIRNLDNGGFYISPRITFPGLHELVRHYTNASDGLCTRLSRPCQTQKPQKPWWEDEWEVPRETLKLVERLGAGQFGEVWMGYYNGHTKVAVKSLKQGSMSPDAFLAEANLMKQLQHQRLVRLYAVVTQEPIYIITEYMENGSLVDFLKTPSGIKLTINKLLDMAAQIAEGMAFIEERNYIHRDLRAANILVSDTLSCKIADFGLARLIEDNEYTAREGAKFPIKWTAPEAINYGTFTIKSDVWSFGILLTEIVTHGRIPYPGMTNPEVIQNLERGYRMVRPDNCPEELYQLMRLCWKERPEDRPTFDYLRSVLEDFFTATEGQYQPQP
Monoacylglycerol acyltransferase 2 (MGAT2), sequence (Q3SYC2 whole entry): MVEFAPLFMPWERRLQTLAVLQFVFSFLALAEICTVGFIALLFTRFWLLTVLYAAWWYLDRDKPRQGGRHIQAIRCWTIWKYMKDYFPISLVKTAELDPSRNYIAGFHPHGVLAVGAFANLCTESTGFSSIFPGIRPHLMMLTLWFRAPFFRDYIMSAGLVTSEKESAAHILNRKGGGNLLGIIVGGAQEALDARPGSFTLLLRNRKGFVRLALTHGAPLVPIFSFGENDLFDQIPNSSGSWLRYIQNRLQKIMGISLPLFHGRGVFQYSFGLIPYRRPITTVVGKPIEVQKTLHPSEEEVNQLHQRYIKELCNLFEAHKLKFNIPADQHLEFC
Angiotensin II receptor type 1 (AGTR1), sequence (P30556 whole entry): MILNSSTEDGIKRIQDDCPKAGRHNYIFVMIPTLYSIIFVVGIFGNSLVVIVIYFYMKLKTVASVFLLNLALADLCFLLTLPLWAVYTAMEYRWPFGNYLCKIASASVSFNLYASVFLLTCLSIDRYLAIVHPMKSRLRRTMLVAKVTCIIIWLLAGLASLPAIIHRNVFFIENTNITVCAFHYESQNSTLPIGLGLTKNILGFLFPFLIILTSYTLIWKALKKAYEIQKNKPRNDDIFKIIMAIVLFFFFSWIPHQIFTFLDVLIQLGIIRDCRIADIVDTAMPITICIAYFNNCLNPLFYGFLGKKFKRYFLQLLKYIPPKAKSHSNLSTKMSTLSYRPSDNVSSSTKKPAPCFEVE
Monoacylglycerol acyltransferase 3 (MGAT3), sequence (Q86VF5 whole entry): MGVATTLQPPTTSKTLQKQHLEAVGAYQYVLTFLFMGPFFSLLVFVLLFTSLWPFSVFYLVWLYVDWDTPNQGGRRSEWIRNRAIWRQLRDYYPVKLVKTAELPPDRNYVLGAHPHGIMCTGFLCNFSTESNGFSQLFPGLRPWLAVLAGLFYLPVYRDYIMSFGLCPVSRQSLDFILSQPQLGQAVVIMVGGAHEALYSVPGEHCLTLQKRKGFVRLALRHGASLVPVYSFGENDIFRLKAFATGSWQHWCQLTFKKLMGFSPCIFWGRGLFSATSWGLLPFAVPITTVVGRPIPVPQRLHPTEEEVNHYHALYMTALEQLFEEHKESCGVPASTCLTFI
Monoacylglycerol acyltransferase 1 (MGAT1), sequence (Q96PD6 whole entry): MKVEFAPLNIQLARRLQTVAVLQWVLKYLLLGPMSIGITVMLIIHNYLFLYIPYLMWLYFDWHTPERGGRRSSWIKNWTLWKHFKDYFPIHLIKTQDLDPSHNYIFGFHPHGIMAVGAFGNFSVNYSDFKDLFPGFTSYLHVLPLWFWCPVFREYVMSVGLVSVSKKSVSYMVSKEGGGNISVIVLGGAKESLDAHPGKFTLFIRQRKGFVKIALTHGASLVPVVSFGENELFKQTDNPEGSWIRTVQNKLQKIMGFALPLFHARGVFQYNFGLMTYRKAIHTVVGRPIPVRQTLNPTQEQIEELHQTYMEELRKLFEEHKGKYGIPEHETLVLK
Neurokinin receptor 1 (NK1), sequence (P25103 whole entry): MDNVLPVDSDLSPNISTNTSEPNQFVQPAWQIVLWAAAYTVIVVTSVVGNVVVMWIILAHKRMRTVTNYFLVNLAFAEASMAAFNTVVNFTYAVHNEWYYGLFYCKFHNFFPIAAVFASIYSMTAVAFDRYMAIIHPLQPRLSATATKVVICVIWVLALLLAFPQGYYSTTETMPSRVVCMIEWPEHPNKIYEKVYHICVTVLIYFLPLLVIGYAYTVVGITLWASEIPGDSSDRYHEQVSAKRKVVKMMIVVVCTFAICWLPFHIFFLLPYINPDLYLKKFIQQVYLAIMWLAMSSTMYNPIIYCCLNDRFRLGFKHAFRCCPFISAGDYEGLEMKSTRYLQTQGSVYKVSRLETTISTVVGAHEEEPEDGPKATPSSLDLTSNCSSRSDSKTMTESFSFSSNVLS
Androgen receptor, sequence (P10275 whole entry): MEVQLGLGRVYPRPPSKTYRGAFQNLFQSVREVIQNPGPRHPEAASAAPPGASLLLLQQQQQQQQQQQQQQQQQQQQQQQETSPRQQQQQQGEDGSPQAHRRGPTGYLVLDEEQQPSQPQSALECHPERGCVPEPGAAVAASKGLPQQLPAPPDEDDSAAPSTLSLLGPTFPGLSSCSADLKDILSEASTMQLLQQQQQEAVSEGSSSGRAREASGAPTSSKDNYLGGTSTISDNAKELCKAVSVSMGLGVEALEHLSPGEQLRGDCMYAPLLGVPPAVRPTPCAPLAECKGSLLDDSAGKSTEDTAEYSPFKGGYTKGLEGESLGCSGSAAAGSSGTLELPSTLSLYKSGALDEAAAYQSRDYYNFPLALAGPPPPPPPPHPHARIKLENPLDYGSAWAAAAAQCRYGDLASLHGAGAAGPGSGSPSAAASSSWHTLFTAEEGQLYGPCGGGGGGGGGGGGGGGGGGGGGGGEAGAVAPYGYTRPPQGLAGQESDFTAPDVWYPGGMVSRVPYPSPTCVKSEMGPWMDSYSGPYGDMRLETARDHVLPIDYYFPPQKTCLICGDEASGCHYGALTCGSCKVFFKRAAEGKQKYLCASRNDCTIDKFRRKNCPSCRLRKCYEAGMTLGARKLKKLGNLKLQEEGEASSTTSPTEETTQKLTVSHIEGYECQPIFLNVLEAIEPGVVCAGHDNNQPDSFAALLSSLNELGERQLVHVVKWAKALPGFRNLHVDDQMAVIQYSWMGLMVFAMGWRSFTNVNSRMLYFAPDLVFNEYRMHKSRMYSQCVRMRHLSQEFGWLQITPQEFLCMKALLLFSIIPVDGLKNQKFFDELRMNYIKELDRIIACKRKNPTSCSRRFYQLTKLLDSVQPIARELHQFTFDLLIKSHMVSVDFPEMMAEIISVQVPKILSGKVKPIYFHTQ
Histamine receptor 2 (H2), sequence (P25021 whole entry): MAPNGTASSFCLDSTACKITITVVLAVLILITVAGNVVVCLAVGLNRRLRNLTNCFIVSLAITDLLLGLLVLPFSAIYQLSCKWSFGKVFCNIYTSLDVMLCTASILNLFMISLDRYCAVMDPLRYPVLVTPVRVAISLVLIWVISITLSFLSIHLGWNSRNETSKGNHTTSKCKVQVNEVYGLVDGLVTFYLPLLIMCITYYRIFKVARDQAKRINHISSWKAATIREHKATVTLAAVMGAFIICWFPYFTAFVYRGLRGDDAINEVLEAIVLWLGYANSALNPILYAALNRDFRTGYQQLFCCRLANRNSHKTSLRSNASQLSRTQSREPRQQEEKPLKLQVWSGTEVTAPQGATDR

Take `CC(C)(C)c1ccc(CC[C@@](O)(CC(=O)O)C(=O)O)cc1` [Compound 2]: the IC50 is above 50 µM in series [1]; above 50 µM in series [2]; above 50 µM in series [3]; above 50 µM in [6]; above 100 µM in series [11]; above 30 µM in series [14]. Besides, the Kp uu at 1 h, 1 µM in [4] stood at 29 ± 5. The inhibition at 100 µM in series [5], in series [7], in [8], in series [9], in [10] and in series [12] was below 10% throughout. Besides, the inhibition at 100 µM (against Androgen receptor; in [13]; in series [15]) was below 10% each time. Further, in the series on HepG2 cells, the cellular toxicity result is “no observable toxicity”. In addition, in the series with HEK-293 parental cells, the “intracellular level in HEK-293 parental cells” value is “not detected at significant levels”. Besides, in [11], the “interaction/inhibition of the hERG channel” value is given as “no significant interaction/inhibition”. The molecule also came in with a pKa in the series “pKa” of 3.1.

Source of the values: publication PMC4664966, “Discovery and characterization of novel inhibitors of the sodium-coupled citrate transporter (NaCT or SLC13A5)” (Scientific Reports, 2015).
